# Experimental data as given in PubChem BioAssay AID2060602 (Molecular Pharmacology Branch, DTP, NCI, 2025).
# Where “and” joins values, the source holds several entries; their conditions need not be identical. Identical values can stand only once.
# System: 648629-189-R-J1-PDC complex spheroids viability
# Experiment: Anticancer human tumor 648629-189-R-J1-PDC patient-derived bladder carcinoma cell line growth inhibition [CLK]
# Settings: for viability, T/C: stronger effect = lower value
# In short: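 Patient-derived tumor cells grown as complex spheroids with HUVEC endothelial cells and mesenchymal stem cells, treated with drug combinations. Concentrations descend in half-log steps from near clinical Cmax, or from 10 microM if Cmax unknown.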
# [1] = curve of first compound, second compound 0.0316 µM
# [2] = curve of first compound, second compound 0.1 µM
# [3] = curve of first compound, second compound 0.316 µM
# [4] = curve of first compound, second compound 1 µM
# [5] = curve of first compound, second compound 3.16 µM
# [6] = curve of first compound, second compound 10 µM
# [7] = second compound 0.0316 µM, first compound 0.0316 µM
# [8] = second compound 0.0316 µM, first compound 0.1 µM
# [9] = second compound 0.0316 µM, first compound 0.316 µM
# [10] = second compound 0.0316 µM, first compound 1 µM
# [11] = second compound 0.0316 µM, first compound 3.16 µM
# [12] = second compound 0.0316 µM, first compound 10 µM
# [13] = second compound 0.1 µM, first compound 0.0316 µM
# [14] = second compound 0.1 µM, first compound 0.1 µM
# [15] = second compound 0.1 µM, first compound 0.316 µM
# [16] = second compound 0.1 µM, first compound 1 µM
# [17] = second compound 0.1 µM, first compound 3.16 µM
# [18] = second compound 0.1 µM, first compound 10 µM
# [19] = second compound 0.316 µM, first compound 0.0316 µM
# [20] = second compound 0.316 µM, first compound 0.1 µM
# [21] = second compound 0.316 µM, first compound 0.316 µM
# [22] = second compound 0.316 µM, first compound 1 µM
# [23] = second compound 0.316 µM, first compound 3.16 µM
# [24] = second compound 0.316 µM, first compound 10 µM
# [25] = second compound 1 µM, first compound 0.0316 µM
# [26] = second compound 1 µM, first compound 0.1 µM
# [27] = second compound 1 µM, first compound 0.316 µM
# [28] = second compound 1 µM, first compound 1 µM
# [29] = second compound 1 µM, first compound 3.16 µM
# [30] = second compound 1 µM, first compound 10 µM
# [31] = second compound 3.16 µM, first compound 0.0316 µM
# [32] = second compound 3.16 µM, first compound 0.1 µM
# [33] = second compound 3.16 µM, first compound 0.316 µM
# [34] = second compound 3.16 µM, first compound 1 µM
# [35] = second compound 3.16 µM, first compound 3.16 µM
# [36] = second compound 3.16 µM, first compound 10 µM
# [37] = second compound 10 µM, first compound 0.0316 µM
# [38] = second compound 10 µM, first compound 0.1 µM
# [39] = second compound 10 µM, first compound 0.316 µM
# [40] = second compound 10 µM, first compound 1 µM
# [41] = second compound 10 µM, first compound 3.16 µM
# [42] = second compound 10 µM, first compound 10 µM
# 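Wherever viability, T/C is given: drug exposure lasted seven days before viability readout; 100% = DMSO vehicle control wells.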
structure (smiles),measurement,setting,value
C=C(F)C(=O)N1CCN(c2nc(OCC3CCCN3C)nc3c2CCN(c2cccc4cccc(Cl)c24)C3)CC1CC#N (stereo unspecified) + CN1CCN(c2cc(C(=O)Nc3cc4cc(-c5cnn(C)c5)ccc4cn3)ccn2)CC1,IC50,[1],5690 nM
same,IC50,[2],5430 nM
same,IC50,[3],< 31.6 nM
same,IC50,[4],< 31.6 nM
same,IC50,[5],< 31.6 nM
same,IC50,[6],< 31.6 nM
same,"viability, T/C",[7],111%
same,"viability, T/C",[8],105%
same,"viability, T/C",[9],109%
same,"viability, T/C",[10],126%
same,"viability, T/C",[11],102%
same,"viability, T/C",[12],0.2%
same,"viability, T/C",[13],106%
same,"viability, T/C",[14],114%
same,"viability, T/C",[15],98.5%
same,"viability, T/C",[16],106%
same,"viability, T/C",[17],94.2%
same,"viability, T/C",[18],0.16%
same,"viability, T/C",[19],46%
same,"viability, T/C",[20],45.1%
same,"viability, T/C",[21],50%
same,"viability, T/C",[22],50.1%
same,"viability, T/C",[23],47.5%
same,"viability, T/C",[24],0.75%
same,"viability, T/C",[25],0.54%
same,"viability, T/C",[26],0.36%
same,"viability, T/C",[27],0.62%
same,"viability, T/C",[28],0.47%
same,"viability, T/C",[29],0.48%
same,"viability, T/C",[30],0.1%
same,"viability, T/C",[31],0.13%
same,"viability, T/C",[32],0.15%
same,"viability, T/C",[33],0.17%
same,"viability, T/C",[34],0.16%
same,"viability, T/C",[35],0.14%
same,"viability, T/C",[36],0.11%
same,"viability, T/C",[37],0.21%
same,"viability, T/C",[38],0.19%
same,"viability, T/C",[39],0.21%
same,"viability, T/C",[40],0.24%
same,"viability, T/C",[41],0.25%
same,"viability, T/C",[42],0.21%
COC1C=CCC(C)C(C)S(=O)(=O)NC(=O)c2ccc3c(c2)N(CC2CCC21)CC1(CCCc2cc(Cl)ccc21)CO3 (stereo unspecified) + CN1CCN(c2cc(C(=O)Nc3cc4cc(-c5cnn(C)c5)ccc4cn3)ccn2)CC1,IC50,[1],2090 nM
same,IC50,[2],2100 nM
same,IC50,[3],< 31.6 nM
same,IC50,[4],< 31.6 nM
same,IC50,[5],< 31.6 nM
same,IC50,[6],< 31.6 nM
same,"viability, T/C",[7],106%
same,"viability, T/C",[8],99.9%
same,"viability, T/C",[9],93.2%
same,"viability, T/C",[10],82%
same,"viability, T/C",[11],32.4%
same,"viability, T/C",[12],3.21%
same,"viability, T/C",[13],114%
same,"viability, T/C",[14],94.4%
same,"viability, T/C",[15],92.4%
same,"viability, T/C",[16],80.1%
same,"viability, T/C",[17],33.3%
same,"viability, T/C",[18],3.02%
same,"viability, T/C",[19],50.2%
same,"viability, T/C",[20],46.9%
same,"viability, T/C",[21],37.9%
same,"viability, T/C",[22],14.4%
same,"viability, T/C",[23],4.72%
same,"viability, T/C",[24],1.78%
same,"viability, T/C",[25],0.38%
same,"viability, T/C",[26],0.34%
same,"viability, T/C",[27],0.42%
same,"viability, T/C",[28],0.15%
same,"viability, T/C",[29],0.13%
same,"viability, T/C",[30],0.08%
same,"viability, T/C",[31],0.13%
same,"viability, T/C",[32],0.12%
same,"viability, T/C",[33],0.16%
same,"viability, T/C",[34],0.14%
same,"viability, T/C",[35],0.43%
same,"viability, T/C",[36],0.12%
same,"viability, T/C",[37],0.17%
same,"viability, T/C",[38],0.13%
same,"viability, T/C",[39],0.2%
same,"viability, T/C",[40],0.21%
same,"viability, T/C",[41],0.24%
same,"viability, T/C",[42],0.51%
CC1COCCN1c1cc(C2(S(C)(=N)=O)CC2)nc(-c2ccnc3[nH]ccc23)n1 (stereo unspecified),"viability, T/C",compound 0.0316 µM,103% and 105%
same,"viability, T/C",compound 0.1 µM,96.5% and 93.5%
same,"viability, T/C",compound 0.316 µM,108% and 97%
same,"viability, T/C",compound 1 µM,87.4% and 95%
same,"viability, T/C",compound 3.16 µM,47.8% and 45.4%
same,"viability, T/C",compound 10 µM,23.8% and 18.8%
same,IC50,curve of compound,2930 nM and 2840 nM
